pEC50, pIC50: −log10 of the molar value.
Columns and labels:
[1] = Clearance in cynomolgus monkey at 1 mg/kg, iv; format: ADME, organism-based, Macaca fascicularis; parameters: dose 1 mg/kg, route intravenous; details: in vivo
[2] = Apparent permeability across human Caco-2 cells from apical to basolateral side in human Caco2 cell membrane; format: ADME, cell-based
[3] = Cytotoxicity against human Huh7/C24 after 72 hrs; format: cell-based, Huh-7; details: Huh7/C24 cells
Cynomolgus monkey [4] = assay: AUC (0 to infinity) in cynomolgus monkey at 1 mg/kg, iv; format: ADME, organism-based, Macaca fascicularis, Plasma; parameters: dose 1 mg/kg, route intravenous, time infinity; details: in vivo
Hepatitis C virus [5] = assay: Antiviral activity against HCV 1b infected in human Huh7/C24 after 72 hrs; format: functional, organism-based, Hepacivirus hominis; details: genotype 1b, Huh-7, 72 h
[6] = Ratio of plasma concentration in po dosed cynomolgus monkey after 12 hrs to EC50 for HCV 1b; format: ADME, organism-based; details: in vivo
[7] = Metabolic stability in human liver microsomes assessed as half life; format: ADME, Microsome
[8] = Oral bioavailability in cynomolgus monkey at 1 mg/kg; format: ADME, organism-based, Macaca fascicularis; details: in vivo
[9] = Inhibition of HCV 1a isolate H77 NS5B polymerase by Microbeta scintillation counter; parameters: species or system Hepatitis C virus subtype 1a
Cynomolgus monkey [10] = assay: AUC (0 to infinity) in cynomolgus monkey at 1 mg/kg, po; format: ADME, organism-based, Macaca fascicularis, Plasma; parameters: time infinity, dose 1 mg/kg, route oral; details: in vivo
[11] = Metabolic stability in monkey liver microsomes assessed as half life; format: ADME, Macaca mulatta, Microsome; details: rhesus monkey
[12] = Metabolic stability in monkey liver microsomes assessed as compound remaining at 1 uM after 60 mins; format: ADME, Macaca mulatta, Microsome; details: rhesus monkey, read-out: Stability
[13] = Metabolic stability in human liver microsomes assessed as compound remaining at 1 uM after 60 mins; format: ADME, Microsome; details: read-out: Stability
Hepatitis C virus [14] = assay: Inhibition of HCV 1b NS5B polymerase by Microbeta scintillation counter; parameters: species or system Hepatitis C virus subtype 1b

| clearance [1] | Papp A→B [2] | AUC (Cynomolgus monkey [4]) | pEC50 (Hepatitis C virus [5]) | Ratio [6] | half-life [7] | bioavailability [8] | pIC50 [9] | AUC (Cynomolgus monkey [10]) | half-life [11] | remaining at 1 h, 1 µM [12] | remaining at 1 h, 1 µM [13] | SMILES | CC50 at 72 h [3] | pIC50 (Hepatitis C virus [14]) |
| --- | --- | --- | --- | --- | --- | --- | --- | --- | --- | --- | --- | --- | --- | --- |
| 0.7 mL/min/kg | 0.67 ×10⁻⁶ cm/s | 25300 ng·h/mL | 6.92 | 0.9 | > 1 h | 12% | 7.20 | 2910 ng·h/mL | > 1 h | 100% | 99% | CS(=O)(=O)Nc1ccc2c(c1)S(=O)(=O)N=C(C1=C(O)[C@H]3CCCC[C@H]3N(Cc3ccc(F)cc3)C1=O)N2 | > 1000 nM | 7.57 |
| 1.2 mL/min/kg | 0.83 ×10⁻⁶ cm/s | 16000 ng·h/mL | 7.35 | 1.33 | > 1 h | 12% | 7.54 | 1840 ng·h/mL | > 1 h | 100% | 88% | CS(=O)(=O)Nc1ccc2c(c1)S(=O)(=O)N=C(C1=C(O)[C@H]3CCC[C@H]3N(Cc3ccc(F)c(F)c3)C1=O)N2 | > 1000 nM | > 8.00 |
| 1.7 mL/min/kg | 1 ×10⁻⁶ cm/s | 10000 ng·h/mL | 6.46 | 0.03 | > 1 h | 6% | 7.37 | 610 ng·h/mL | > 1 h | 83% | 80% | CS(=O)(=O)Nc1ccc2c(c1)S(=O)(=O)N=C(C1=C(O)[C@@H]3CCCC[C@@H]3N(Cc3ccc(F)cc3)C1=O)N2 | > 33000 nM | 7.33 |
| 4.1 mL/min/kg | 0.95 ×10⁻⁶ cm/s | 4840 ng·h/mL | 7.13 | 0.37 | 0.783 h | 14% | 7.38 | 655 ng·h/mL | > 1 h | 81% | – | CS(=O)(=O)Nc1ccc2c(c1)S(=O)(=O)N=C(C1=C(O)C3CCCCCC3N(Cc3ccc(F)cc3)C1=O)N2 (racemic) | > 33000 nM | 7.24 |
| 4.9 mL/min/kg | 3.1 ×10⁻⁶ cm/s | 3520 ng·h/mL | 7.48 | 0.11 | 0.267 h | 7% | 7.18 | 239 ng·h/mL | 0.133 h | – | – | CC(C)(C)CCN1C(=O)C(C2=NS(=O)(=O)c3cc(NS(C)(=O)=O)ccc3N2)=C(O)C2CCCCC21 (racemic) | > 33000 nM | 7.37 |

Source: ChEMBL document CHEMBL1153893, “5,6-Dihydro-1H-pyridin-2-ones as potent inhibitors of HCV NS5B polymerase” (Bioorg Med Chem Lett, 2009)
